Measurements taken from patent publication US20160101194A1, “SMART® Medication Adherence Formulation, Method, Device and System for Topical, Vaginal or Rectal Routes of Administration” (University of Florida Research Foundation, Incorporated, priority 2013, published 2016).

How the values were obtained:
[1] = after vaginal administration with gel; cited from earlier work
[2] = 40 mg rectal in 3 mL HEC gel
Experimental: The entire contents of the syringe were applied rectally as a bolus. Breath acetone and 2-butanone levels were monitored throughout the experiment by delivering single full breath samples directly into the modified ESI source. Two baseline breath samples were taken immediately prior to application and then at 1-3 min intervals thereafter. The ESI source was operated in positive ion mode. A 0.2% NH4OH:water mobile phase was introduced into the source at a flow rate of 0.1 mL/min during sampling to produce ammonium adducts of the analytes of interest.

[3] = after oral dosing
Experimental: Data shown are mean±SD. *, P<0.05 for a given time point compared to time point 0 min. The arrow denotes time of capsule ingestion. Concentrations less than the level of 1.0 parts-per-billion (ppb) are noted as “<LOD”.

[4] = Breath kinetics of exhaled d6-acetone after oral ingestion of d8-isopropanol; format: in vivo; details: post-ingestion
Experimental: Either 100 mg d8-isopropanol or 20 mg d8 isopropanol was delivered orally. For oral dosing, 100 or 20 mg of neat d8-isopropanol were placed in a size 4 licap and the licap was swallowed along with 60-100 mL of water. Following administration of d8-isopropanol, exhaled breath was monitored in real time for the presence of d6-acetone and d7-isopropanol using the Orbitrap LCMS.
(§1) Following application or ingestion, d6-acetone and d7-isopropanol levels were monitored in exhaled breath samples using the LTQ-LCMS. Single full breath samples were administered directly into the modified ESI source at 5 min intervals for ˜4 hours. The ESI source was operated in positive ion mode.

[5] = Breath kinetics of exhaled d6-acetone after topical application of d8-isopropanol in carbomer gel; format: in vivo; details: 240 mg transdermal in carbomer gel, post application; maximum still not achieved
Experimental: 240 mg of d8-isopropanol was mixed with 3 mL of a carbomer-based aloe gel. This gel was applied to an approximately 20 cm^2 area of the inner left forearm and covered with a Tagaderm occlusive dressing. To further reduce the permeability of the dressing, the transparent section was covered with a small section of teldar polymer prior to use.
as §1

SMILES: CCC(C)OC(C)=O (stereo not shown) [2-butyl acetate]
- parent ester and metabolites observed in breath [1]: observed in breath

SMILES: CCC(C)O (stereo not shown) [2-butanol]
- time to appearance of 2-butanone in breath [2]: 2 to 3 min
- 2-butanone concentration in breath [3]: 500-1,000 ppb

SMILES: CCCC(C)OC(C)=O (stereo not shown) [2-pentyl acetate]
- parent ester and metabolites observed in breath [1]: observed in breath

SMILES: [2H]OC([2H])(C([2H])([2H])[2H])C([2H])([2H])[2H] [d8-IPA, d8-isopropanol]
- time by which D6-acetone levels in exhaled breath began to level out ([4]; 20 mg oral): ≤ 15 min
- time by which D6-acetone levels in exhaled breath began to level out ([4]; 100 mg oral): ≤ 15 min
- time to maximum concentration of d-6 acetone in exhaled breath [5]: > 200 min
